Test results published in PubChem BioAssay (NCI).
Where “and” joins values, the source holds several entries; their conditions need not be identical. Identical values can stand only once.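 Test compounds were applied to cells in 96-well plates for 48 hours at 5 doses. The concentration for 50% growth inhibition is given as GI50. TGI denotes the concentration required for complete inhibition of growth.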

How the values were obtained:
Test in all cases: NCI-60 cell line screen, 48 h
SR leukemia = system: SR leukemia
HOP-92 NSCLC = system: HOP-92 NSCLC
SF-539 CNS = system: SF-539 CNS
HT29 colon = system: HT29 colon
ACHN renal = system: ACHN renal
A498 renal = system: A498 renal
SW-620 colon = system: SW-620 colon
K-562 leukemia = system: K-562 leukemia
MDA-MB-435 = system: MDA-MB-435
SK-OV-3 ovarian = system: SK-OV-3 ovarian
NCI-H522 lung = system: NCI-H522 lung
PC-3 prostate = system: PC-3 prostate
COLO 205 colon = system: COLO 205 colon
LOX IMVI melanoma = system: LOX IMVI melanoma
SNB-19 CNS = system: SNB-19 CNS
DU-145 prostate = system: DU-145 prostate
A549 NSCLC = system: A549 NSCLC
MDA-MB-231 breast = system: MDA-MB-231 breast
U251 CNS = system: U251 CNS
SK-MEL-28 melanoma = system: SK-MEL-28 melanoma
UACC-62 melanoma = system: UACC-62 melanoma
EKVX NSCLC = system: EKVX NSCLC
NCI-H23 lung = system: NCI-H23 lung
UO-31 renal = system: UO-31 renal
CCRF-CEM leukemia = system: CCRF-CEM leukemia
SNB-75 CNS = system: SNB-75 CNS
MOLT-4 leukemia = system: MOLT-4 leukemia
HOP-62 NSCLC = system: HOP-62 NSCLC
IGROV1 ovarian = system: IGROV1 ovarian
NCI-H460 lung = system: NCI-H460 lung
OVCAR-8 ovarian = system: OVCAR-8 ovarian
RXF 393 renal = system: RXF 393 renal
HCC-2998 colon = system: HCC-2998 colon
HS 578T breast = system: HS 578T breast
BT-549 breast = system: BT-549 breast
MALME-3M melanoma = system: MALME-3M melanoma
NCI-H226 lung = system: NCI-H226 lung
HL-60(TB) leukemia = system: HL-60(TB) leukemia
CAKI-1 renal = system: CAKI-1 renal
NCI/ADR-RES ovarian = system: NCI/ADR-RES ovarian
SF-295 CNS = system: SF-295 CNS
HCT-15 colon = system: HCT-15 colon
KM12 colon = system: KM12 colon
786-0 renal = system: 786-0 renal
OVCAR-5 ovarian = system: OVCAR-5 ovarian
OVCAR-3 ovarian = system: OVCAR-3 ovarian
TK-10 renal = system: TK-10 renal
SK-MEL-5 melanoma = system: SK-MEL-5 melanoma
OVCAR-4 ovarian = system: OVCAR-4 ovarian
SK-MEL-2 melanoma = system: SK-MEL-2 melanoma
UACC-257 melanoma = system: UACC-257 melanoma
T-47D breast = system: T-47D breast
M14 melanoma = system: M14 melanoma
RPMI-8226 leukemia = system: RPMI-8226 leukemia
HCT-116 colon = system: HCT-116 colon
SF-268 CNS = system: SF-268 CNS
SN12C renal = system: SN12C renal
MCF7 breast = system: MCF7 breast

CO[C@@H](C(=O)N1Cc2[nH]nc(NC(=O)c3ccc(N4CCN(C)CC4)cc3)c2C1)c1ccccc1
GI50 (SR leukemia): 56.9 nM and 39.5 nM | TGI (SR leukemia): > 35600 nM | GI50 (HOP-92 NSCLC): 153 nM and 63.9 nM | TGI (HOP-92 NSCLC): 731 nM and 1240 nM | GI50 (SF-539 CNS): 459 nM and 105 nM | TGI (SF-539 CNS): 12000 nM and 5630 nM | GI50 (HT29 colon): 713 nM and 658 nM | TGI (HT29 colon): 2650 nM and 8970 nM | GI50 (ACHN renal): 4970 nM and 6660 nM | TGI (ACHN renal): > 69600 nM | GI50 (A498 renal): 69.6 nM and 317 nM | TGI (A498 renal): 1320 nM and 3620 nM | GI50 (SW-620 colon): 314 nM and 129 nM | TGI (SW-620 colon): 22300 nM and > 10000 nM | GI50 (K-562 leukemia): 106 nM and 54.7 nM | TGI (K-562 leukemia): > 100000 nM | GI50 (MDA-MB-435): 2690 nM and 3080 nM | TGI (MDA-MB-435): 17400 nM and > 10000 nM | GI50 (SK-OV-3 ovarian): 591 nM and 863 nM | TGI (SK-OV-3 ovarian): > 41200 nM | GI50 (NCI-H522 lung): 469 nM and 163 nM | TGI (NCI-H522 lung): 45500 nM and > 10000 nM | GI50 (PC-3 prostate): 1530 nM and 2530 nM | TGI (PC-3 prostate): 40700 nM and > 10000 nM | GI50 (COLO 205 colon): 48.3 nM and 39.5 nM | TGI (COLO 205 colon): 1030 nM and 625 nM | GI50 (LOX IMVI melanoma): 255 nM and 82.5 nM | TGI (LOX IMVI melanoma): 2050 nM and 1820 nM | GI50 (SNB-19 CNS): 4020 nM and 2930 nM | TGI (SNB-19 CNS): > 100000 nM | GI50 (DU-145 prostate): 2020 nM and 1930 nM | TGI (DU-145 prostate): 17900 nM and > 10000 nM | GI50 (A549 NSCLC): 419 nM and 158 nM | TGI (A549 NSCLC): > 69600 nM | GI50 (MDA-MB-231 breast): 562 nM and 142 nM | TGI (MDA-MB-231 breast): > 70500 nM | GI50 (U251 CNS): 2160 nM and 1510 nM | TGI (U251 CNS): > 50100 nM | GI50 (SK-MEL-28 melanoma): 3110 nM and 2720 nM | TGI (SK-MEL-28 melanoma): 20900 nM and > 10000 nM | GI50 (UACC-62 melanoma): 548 nM and 482 nM | TGI (UACC-62 melanoma): 50500 nM and > 10000 nM | GI50 (EKVX NSCLC): 1730 nM and 1890 nM | TGI (EKVX NSCLC): 37600 nM and > 10000 nM | GI50 (NCI-H23 lung): 764 nM and 609 nM | TGI (NCI-H23 lung): 23700 nM and > 10000 nM | GI50 (UO-31 renal): 9330 nM and 3670 nM | TGI (UO-31 renal): 33800 nM and > 10000 nM | TGI (CCRF-CEM leukemia): > 100000 nM | GI50 (SNB-75 CNS): 215 nM | TGI (SNB-75 CNS): 1660 nM | GI50 (MOLT-4 leukemia): 12600 nM and 2300 nM | TGI (MOLT-4 leukemia): > 81100 nM | GI50 (HOP-62 NSCLC): 1040 nM and 585 nM | TGI (HOP-62 NSCLC): 19300 nM and > 10000 nM | GI50 (IGROV1 ovarian): 282 nM and 62.4 nM | TGI (IGROV1 ovarian): 3010 nM and 2950 nM | GI50 (NCI-H460 lung): 224 nM and 99.7 nM | TGI (NCI-H460 lung): 18000 nM and > 10000 nM | GI50 (OVCAR-8 ovarian): 2270 nM and 1840 nM | TGI (OVCAR-8 ovarian): > 100000 nM | GI50 (RXF 393 renal): 593 nM and 312 nM | TGI (RXF 393 renal): 3720 nM and 2090 nM | GI50 (HCC-2998 colon): 525 nM and 503 nM | TGI (HCC-2998 colon): 46000 nM and > 10000 nM | GI50 (HS 578T breast): 1370 nM and 232 nM | TGI (HS 578T breast): 7920 nM and 859 nM | GI50 (BT-549 breast): 809 nM and 1390 nM | TGI (BT-549 breast): 5900 nM and > 10000 nM | GI50 (MALME-3M melanoma): 509 nM and 4410 nM | TGI (MALME-3M melanoma): 22900 nM and > 10000 nM | GI50 (NCI-H226 lung): 360 nM and 80.4 nM | TGI (NCI-H226 lung): 49300 nM and > 8910 nM | GI50 (HL-60(TB) leukemia): 3250 nM and 4350 nM | TGI (HL-60(TB) leukemia): 28300 nM and > 10000 nM | GI50 (CAKI-1 renal): 19600 nM and > 10000 nM | TGI (CAKI-1 renal): > 91400 nM | GI50 (NCI/ADR-RES ovarian): > 100000 nM | TGI (NCI/ADR-RES ovarian): > 100000 nM | GI50 (SF-295 CNS): 715 nM and 146 nM | TGI (SF-295 CNS): > 100000 nM | GI50 (HCT-15 colon): 18800 nM and > 10000 nM | TGI (HCT-15 colon): > 100000 nM | GI50 (KM12 colon): 216 nM and 125 nM | TGI (KM12 colon): 7090 nM and > 8180 nM | GI50 (786-0 renal): 2550 nM and 2000 nM | TGI (786-0 renal): 31400 nM and > 10000 nM | GI50 (OVCAR-5 ovarian): 1350 nM and 850 nM | TGI (OVCAR-5 ovarian): > 68800 nM | GI50 (OVCAR-3 ovarian): 866 nM and 1130 nM | TGI (OVCAR-3 ovarian): > 87000 nM | GI50 (TK-10 renal): 3280 nM and 2780 nM | TGI (TK-10 renal): 67200 nM and > 10000 nM | GI50 (SK-MEL-5 melanoma): 1650 nM and 2760 nM | TGI (SK-MEL-5 melanoma): 12100 nM and > 10000 nM | GI50 (OVCAR-4 ovarian): 610 nM and 2820 nM | TGI (OVCAR-4 ovarian): > 52400 nM | GI50 (SK-MEL-2 melanoma): 4330 nM and 6860 nM | TGI (SK-MEL-2 melanoma): 33100 nM and > 10000 nM | GI50 (UACC-257 melanoma): 613 nM and 1060 nM | TGI (UACC-257 melanoma): 18900 nM and > 10000 nM | GI50 (T-47D breast): 792 nM and 538 nM | TGI (T-47D breast): 69300 nM and > 10000 nM | GI50 (M14 melanoma): 3730 nM and 2340 nM | TGI (M14 melanoma): 23400 nM and > 10000 nM | GI50 (RPMI-8226 leukemia): 7040 nM and 5810 nM | TGI (RPMI-8226 leukemia): > 52500 nM | GI50 (HCT-116 colon): 117 nM and 87.9 nM | TGI (HCT-116 colon): 6670 nM and > 8710 nM | GI50 (SF-268 CNS): 1060 nM and 889 nM | TGI (SF-268 CNS): 8080 nM and 4640 nM | TGI (SN12C renal): > 100000 nM | GI50 (MCF7 breast): 104 nM and 73.6 nM | TGI (MCF7 breast): 23100 nM and > 10000 nM
